# Columns and labels:
# [1] = biological target: T1, Mitogen-activated protein kinase 14 (Homo sapiens, UniProt Q16539); test: Inhibition of p38-alpha at 100 nM
# [2] = biological target: T1, Mitogen-activated protein kinase 14; test: Inhibition of p38alpha
# [3] = biological target: T1, Mitogen-activated protein kinase 14; test: Inhibition of p38-alpha at 1250 nM
# [4] = biological target: T1, Mitogen-activated protein kinase 14; test: Inhibition of p38-alpha at 10 uM by whole blood assay
# [5] = biological target: T1, Mitogen-activated protein kinase 14; test: Inhibition of p38-alpha by whole blood assay
# [6] = biological target: T1, Mitogen-activated protein kinase 14; test: Inhibition of p38-alpha at 1000 nM
# T1 sequence (Q16539 whole entry): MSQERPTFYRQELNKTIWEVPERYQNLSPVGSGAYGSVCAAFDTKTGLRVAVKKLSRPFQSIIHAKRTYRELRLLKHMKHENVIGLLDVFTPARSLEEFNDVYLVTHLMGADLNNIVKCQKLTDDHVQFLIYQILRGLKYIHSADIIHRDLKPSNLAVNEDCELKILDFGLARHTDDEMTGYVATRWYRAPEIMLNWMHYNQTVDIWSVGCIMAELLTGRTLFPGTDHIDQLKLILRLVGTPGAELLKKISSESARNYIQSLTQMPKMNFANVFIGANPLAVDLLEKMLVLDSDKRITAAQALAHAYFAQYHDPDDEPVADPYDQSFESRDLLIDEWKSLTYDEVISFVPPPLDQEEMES
Compound,IC50 ([2]; read-out: IC50) [nM],IC50 [5] [nM],other results
COc1cc(-c2ccccc2Cl)c2cc(OC)c(=O)n(-c3c(Cl)cccc3Cl)c2c1,–,–,inhibition [1]: 29%
O=C1C(O)Cc2c(-c3ccccc3Cl)cc(O)cc2N1c1c(Cl)cccc1Cl (stereo unspecified),4,–,–
COc1cc(-c2ccccc2Cl)c2c(c1)N(c1c(Cl)cccc1Cl)C(=O)C(OC)C2 (stereo unspecified),–,–,inhibition [3]: 63%
O=c1ccc2c(-c3ccccn3)cccc2n1-c1c(Cl)cccc1Cl,350,–,–
O=C1C(O)Cc2c(-c3ccccc3Cl)cccc2N1c1c(Cl)cccc1Cl (stereo unspecified),27.5,–,–
COc1cc(-c2ccccc2Cl)c2cc(O)c(=O)n(-c3c(Cl)cccc3Cl)c2c1,28,–,–
O=c1ccc2c(-c3ccccc3)cccc2n1-c1c(Cl)cccc1Cl,13.4,–,–
NC1Cc2c(-c3ccccc3Cl)cccc2N(c2c(Cl)cccc2Cl)C1=O (stereo unspecified),–,–,IC50 [2]: Not Active
O=c1ccc2c(-c3cccnc3)cccc2n1-c1c(Cl)cccc1Cl,460,–,–
O=c1ccc2c(-c3ccncc3)cccc2n1-c1c(Cl)cccc1Cl,–,–,inhibition [6]: 58%
[N-]=[N+]=NC1Cc2c(-c3ccccc3Cl)cccc2N(c2c(Cl)cccc2Cl)C1=O (stereo unspecified),–,–,inhibition [1]: 15%
O=c1ccc2c(-c3ccccc3Cl)cccc2n1-c1c(Cl)cccc1Cl,6,–,–
NC1(C(=O)NCCOc2cc(-c3ccccc3Cl)c3ccc(=O)n(-c4c(Cl)cccc4Cl)c3c2)CC1,1.5,1010,–
COC1Cc2c(-c3ccccc3Cl)cccc2N(c2c(Cl)cccc2Cl)C1=O (stereo unspecified),–,–,IC50 [2]: Not Active
O=c1c(O)cc2c(-c3ccccc3Cl)cc(O)cc2n1-c1c(Cl)cccc1Cl,5,–,–
COc1cc(-c2ccccc2Cl)c2c(c1)N(c1c(Cl)cccc1Cl)C(=O)C(O)C2 (stereo unspecified),9,–,–

# Second part, led by results:
IC50 ([2]; read-out: IC50) [nM],IC50 [5] [nM],Compound,other results
1.5,–,COc1cc(-c2ccccc2Cl)c2ccc(=O)n(-c3c(Cl)cccc3Cl)c2c1,inhibition [4]: 75%
0.12,28,CC(C)(N)C(=O)NCCOc1cc(-c2ccccc2Cl)c2ccc(=O)n(-c3c(Cl)cccc3Cl)c2c1,–
0.5,200,NC(CO)C(=O)NCCOc1cc(-c2ccccc2Cl)c2ccc(=O)n(-c3c(Cl)cccc3Cl)c2c1 (stereo unspecified),–
0.16,32,C[C@H](N)C(=O)NCCOc1cc(-c2ccccc2Cl)c2ccc(=O)n(-c3c(Cl)cccc3Cl)c2c1,–
0.7,–,O=c1ccc2c(-c3ccccc3Cl)cc(O)cc2n1-c1c(Cl)cccc1Cl,–
0.2,47,C[C@@H](N)C(=O)NCCOc1cc(-c2ccccc2Cl)c2ccc(=O)n(-c3c(Cl)cccc3Cl)c2c1,–
0.9,73,O=C(NCCOc1cc(-c2ccccc2Cl)c2ccc(=O)n(-c3c(Cl)cccc3Cl)c2c1)[C@H]1CCCN1,–
0.75,87,O=C(NCCOc1cc(-c2ccccc2Cl)c2ccc(=O)n(-c3c(Cl)cccc3Cl)c2c1)[C@@H]1CCCN1,–
0.57,130,NCCC(=O)NCCOc1cc(-c2ccccc2Cl)c2ccc(=O)n(-c3c(Cl)cccc3Cl)c2c1,–
0.3,80,NCC(=O)NCCOc1cc(-c2ccccc2Cl)c2ccc(=O)n(-c3c(Cl)cccc3Cl)c2c1,–

# — ChEMBL document CHEMBL1144044, “Synthesis and biological activity of quinolinone and dihydroquinolinone p38 MAP kinase inhibitors” (Bioorg Med Chem Lett, 2008)
